Reference: US12398119B2, “Piperazine azaspiro derivatives” (PFIZER INC., priority 2018, dated 2025)

Biological target: T1, Human M4 mAChR (Homo sapiens, UniProt P08173)
T1 construct: host or cells: HEK293 (Sor-L9 HEK293 human/M4/GloSensor Cell Clone Number 40)
T1 sequence (P08173 1-479): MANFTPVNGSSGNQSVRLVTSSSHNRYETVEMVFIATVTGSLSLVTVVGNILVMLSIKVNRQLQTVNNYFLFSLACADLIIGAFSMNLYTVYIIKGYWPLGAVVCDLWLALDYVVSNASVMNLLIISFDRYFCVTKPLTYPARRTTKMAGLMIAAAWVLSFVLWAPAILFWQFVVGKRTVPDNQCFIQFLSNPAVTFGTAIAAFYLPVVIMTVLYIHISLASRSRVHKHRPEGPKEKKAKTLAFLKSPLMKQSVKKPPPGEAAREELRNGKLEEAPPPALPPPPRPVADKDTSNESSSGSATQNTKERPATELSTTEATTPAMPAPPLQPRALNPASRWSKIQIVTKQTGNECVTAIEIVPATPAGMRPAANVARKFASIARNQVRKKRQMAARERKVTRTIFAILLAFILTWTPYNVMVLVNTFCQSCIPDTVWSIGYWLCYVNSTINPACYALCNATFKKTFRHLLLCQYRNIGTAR
Experiment: Muscarinic hM4 Agonist GloSensor cAMP Assay
Format: cell-based
Conditions: geometric mean; for Emax: Emax: maximum asymptote of concentration response curve, relative to ACh positive control (EC100) and DMSO, read-out: % maximum effect; for EC50: HEK293 human/M4/GloSensor cells, EC80 isoproterenol, number of determinations in parentheses, read-out: EC50
Experimental: Muscarinic hM4 Agonist GloSensor cAMP Assay Methods
Compounds were prepared in advance of the assay. Test compounds were solubilized in 100% dimethyl sulfoxide (DMSO, Sigma D8418) to a concentration of 30 mM. A 10-point intermediate dilution series using half log dilutions was created in 100% DMSO with a top concentration of 4 mM. The serially diluted compounds were spotted as 200 nL/well in a 384-well plate (Matrix Catalog Number 4325). The final compound concentration range in the assay was […] to 0.3 nM with a final DMSO concentration of 0.25%.
Human M4 mAChR expressing stable cell lines were generated using a parental HEK cell expressing the GloSensor construct (Promega Sor-L9 HEK293 human/M4/GloSensor Cell Clone Number 40). The cells were grown in 90% Dulbecco's Modified Eagle Medium (DMEM, Gibco 11960), 10% fetal bovine serum (FBS, Hyclone CH.30160-03), 1% Penicillin/Streptomycin (Gibco 15070-063), 500 µg/mL Geneticin (Gibco 10131-027), 200 µg/mL Hygromycin B (Invitrogen 10687-010) and 1% Glutamax (Thermo Fisher 35050061).
One day prior to assay, the cells were lifted using dissociation buffer (Gibco 13151-014) and spun in a centrifuge at 250 times gravity for 5 minutes at room temperature. Supernatant was removed and the cell pellet was resuspended in growth media to a concentration of […]. Cells were then added to white poly-d-lysine coated plates (Becton Dickinson 356661) as 40 μL per well (25,000 cells) and incubated overnight (20-24 hours) in a 37° C. humidified incubator with 5% carbon dioxide (C02).
The following day, culture media was removed from the cell plates and replaced with […] equilibration medium containing 88% CO2-independent medium (Invitrogen 18045088), 10% FBS and 2% GloSensor cAMP reagent (Promega E1291) that had been warmed to 37° C. Plates were then covered and incubated for 2 hours at room temperature while protected from light.
To the previously prepared serially diluted compound plates, 200 nL of 4 mM ACh (Sigma A2661, 10 μM final) or 200 nL of 100% DMSO (0.25% final) was added to the positive and negative control wells, respectively. Compound plates were then diluted by adding 16 μL of C02-independent media containing 10% FBS and an EC80 concentration of isoproterenol (Sigma 16504). Prior to compound testing, concentration response curves were run for isoproterenol to determine the EC80 concentration. At the end of the 2 hour equilibration, 10 µL was transferred from the compound plates to the cell plates. The cell plates were incubated an additional 7 minutes at room temperature and then read using a Multi-label EnVision plate reader (Perkin Elmer) for luminescence.
The raw data, expressed as relative light units, was analyzed using Activity Base (IDBS). The percent effect at each compound concentration was calculated based on and relative to the amount of cAMP produced by the positive and negative control wells contained on each assay plate. The positive control wells contained an EC100 concentration of ACh and the negative control wells contained only DMSO. The concentration and % effect values were fit using a four-parameter logistic dose response equation, and the concentration required for 50% effect (EC50) was determined as well as the maximum asymptote of the concentration response curve to define the efficacy.

Row | Emax | EC50 | SMILES
1 | 82.7% | 4.59 nM | CCOC(=O)N1CC2(CCC(N3CCN(c4ncccc4-c4cnc(OC)cn4)CC3)C2)C1 (stereo not shown) [Example 1, ethyl 6-{4-[3-(5-methoxypyrazin-2-yl)pyridin-2-yl]piperazin-1-yl}-2-azaspiro[3.4]octane-2-carboxylate]
2 | 87.2% | 2.17 nM | CCOC(=O)N1CC2(CC[C@@H](N3CCN(c4ncccc4-c4cscn4)CC3)C2)C1 [Example 4, ethyl (6R)-6-{4-[3-(1,3-thiazol-4-yl)pyridin-2-yl]piperazin-1-yl}-2-azaspiro[3.4]octane-2-carboxylate]
3 | 46.4% | 1.6 nM | CCOC(=O)N1CC2(CC[C@@H](N3CCN(c4ncccc4-c4nncs4)CC3)C2)C1 [Example 5, ethyl (6R)-6-{4-[3-(1,3,4-thiadiazol-2-yl)pyridin-2-yl]piperazin-1-yl}-2-azaspiro[3.4]octane-2-carboxylate]
4 | 86.3% | 1.57 nM | CCOC(=O)N1CC2(CC[C@@H](N3CCN(c4ncccc4OC)CC3)C2)C1 [Example 6, ethyl (6R)-6-[4-(3-methoxypyridin-2-yl)piperazin-1-yl]-2-azaspiro[3.4]octane-2-carboxylate]
5 | 47.7% | 425 nM | CCOC(=O)N1CC2(CC[C@H](N3CCN(c4ncccc4OC)CC3)C2)C1 [Example 7, ethyl (6S)-6-[4-(3-methoxypyridin-2-yl)piperazin-1-yl]-2-azaspiro[3.4]octane-2-carboxylate]
6 | 98.7% | 2.23 nM | CCOC(=O)N1CC2(CC[C@@H](N3CCN(c4ncccc4-c4cnccn4)CC3)C2)C1 [Example 8, ethyl (6R)-6-{4-[3-(pyrazin-2-yl)pyridin-2-yl]piperazin-1-yl}-2-azaspiro[3.4]octane-2-carboxylate]
7 | 68.2% | 14.8 nM | CCOC(=O)N1CC2(CC[C@@H](N3CCN(c4ncccc4-n4cc(C)cn4)CC3)C2)C1 [Example 9, ethyl (6R)-6-{4-[3-(4-methyl-1H-pyrazol-1-yl)pyridin-2-yl]piperazin-1-yl}-2-azaspiro[3.4]octane-2-carboxylate]
8 | 91.5% | 5.13 nM | CCOC(=O)N1CC2(CCC(N3CCN(c4cccnc4OCC(F)(F)F)CC3)C2)C1 (stereo not shown) [Example 10, ethyl 6-{4-[2-(2,2,2-trifluoroethoxy)pyridin-3-yl]piperazin-1-yl}-2-azaspiro[3.4]octane-2-carboxylate]
9 | 66.4% | 0.806 nM | CCOC(=O)N1CC2(CC[C@@H](N3CCN(c4nccnc4-c4cncs4)CC3)C2)C1 [Example 11, ethyl (6R)-6-{4-[3-(1,3-thiazol-5-yl)pyrazin-2-yl]piperazin-1-yl}-2-azaspiro[3.4]octane-2-carboxylate]
10 | 95.2% | 23.3 nM | CCOC(=O)N1CCC2(CC(N3CCN(c4ncccc4OC)CC3)C2)C1 (stereo not shown) [Example 12, ethyl 2-[4-(3-methoxypyridin-2-yl)piperazin-1-yl]-6-azaspiro[3.4]octane-6-carboxylate]
11 | 92.6% | 4.82 nM | CCOC(=O)N1CCC2(CC(N3CCN(c4ncccc4-c4cnn(C)c4)CC3)C2)C1 (stereo not shown) [Example 13, ethyl 2-{4-[3-(1-methyl-1H-pyrazol-4-yl)pyridin-2-yl]piperazin-1-yl}-6-azaspiro[3.4]octane-6-carboxylate]
12 | 93.7% | 1.2 nM | CCOC(=O)N1CC2(CCC(N3CCN(c4ncccc4-c4cncnc4)CC3)C2)C1 (stereo not shown) [Example 14, ethyl 6-{4-[3-(pyrimidin-5-yl)pyridin-2-yl]piperazin-1-yl}-2-azaspiro[3.4]octane-2-carboxylate]
13 | 58.5% | 17.3 nM | CCOC(=O)N1CC2(CCC(N3CCN(c4ncccc4-c4nccnc4C)CC3)C2)C1 (stereo not shown) [Example 15, ethyl 6-{4-[3-(3-methylpyrazin-2-yl)pyridin-2-yl]piperazin-1-yl}-2-azaspiro[3.4]octane-2-carboxylate]
14 | 104% | 24.5 nM | CCOC(=O)N1CCC2(CC(N3CCN(c4ncccc4-c4cscn4)CC3)C2)C1 (stereo not shown) [Example 16, ethyl 2-{4-[3-(1,3-thiazol-4-yl)pyridin-2-yl]piperazin-1-yl}-6-azaspiro[3.4]octane-6-carboxylate]
15 | 92.3% | 4.41 nM | CCOC(=O)N1CC2(CCC(N3CCN(c4ncccc4-c4ccnnc4)CC3)C2)C1 (stereo not shown) [Example 17, ethyl 6-{4-[3-(pyridazin-4-yl)pyridin-2-yl]piperazin-1-yl}-2-azaspiro[3.4]octane-2-carboxylate]
16 | 54.9% | 5.11 nM | CCOC(=O)N1CC2(CCC(N3CCN(c4ncccc4-c4ncco4)CC3)C2)C1 (stereo not shown) [Example 18, ethyl 6-{4-[3-(1,3-oxazol-2-yl)pyridin-2-yl]piperazin-1-yl}-2-azaspiro[3.4]octane-2-carboxylate]
17 | 70.6% | 53.8 nM | CCOC(=O)N1CC2(CC(N3CCN(c4ncccc4-c4ccc(C#N)cn4)CC3)C2)C1 [Example 24, ethyl 6-[4-(5-cyano-2,3′-bipyridin-2′-yl)piperazin-1-yl]-2-azaspiro[3.3]heptane-2-carboxylate]
18 | 83.1% | 5.37 nM | CCOC(=O)N1CC2(CCC(N3CCN(c4cccnc4OC4COC4)CC3)C2)C1 (stereo not shown) [Example 25, ethyl 6-{4-[2-(oxetan-3-yloxy)pyridin-3-yl]piperazin-1-yl}-2-azaspiro[3.4]octane-2-carboxylate]
19 | 60% | 1.78 nM | CCOC(=O)N1CC2(CCC(N3CCN(c4ncccc4N4CCC(c5ccnn5C)CC4)CC3)C2)C1 (stereo not shown) [Example 28, ethyl 6-(4-{3-[4-(1-methyl-1H-pyrazol-5-yl)pipendin-1-yl]pyridin-2-yl}piperazin-1-yl)-2-azaspiro[3.4]octane-2-carboxylate]
20 | 84% | 4.45 nM | CCOC(=O)N1CC2(CCC(N3CCN(c4ncccc4N4CCC(F)(F)C4)CC3)C2)C1 (stereo not shown) [Example 29, ethyl 6-{4-[3-(3,3-difluoropyrrolidin-1-yl)pyridin-2-yl]piperazin-1-yl}-2-azaspiro[3.4]octane-2-carboxylate]
21 | 70.3% | 2.28 nM | CCOC(=O)N1CC2(CCC(N3CCN(c4ncccc4N4CC(C#N)C4)CC3)C2)C1 (stereo not shown) [Example 30, ethyl 6-{4-[3-(3-cyanoazetidin-1-yl)pyridin-2-yl]piperazin-1-yl}-2-azaspiro[3.4]octane-2-carboxylate]
22 | 101% | 13.5 nM | CCOC(=O)N1CC2(CC(N3CCN(c4ncccc4-c4sncc4C)CC3)C2)C1 [Example 31, ethyl 6-{4-[3-(4-methyl-1,2-thiazol-5-yl)pyridin-2-yl]piperazin-1-yl}-2-azaspiro[3.3]heptane-2-carboxylate]
23 | 84.3% | 27.8 nM | CCOC(=O)N1CC2(CC(N3CCN(c4ncccc4-c4cc(C)ns4)CC3)C2)C1 [Example 32, ethyl 6-{4-[3-(3-methyl-1,2-thiazol-5-yl)pyridin-2-yl]piperazin-1-yl}-2-azaspiro[3.3]heptane-2-carboxylate]
